Source: the supplement of paper PMC10307832

Tests used:
Assay in all cases: relative viability (nuclei count vs DMSO), 5 days (fraction); higher = more cells survive
A-427 = tested on: A-427
Outline: (§1)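 Lung cancer cell lines, seeded in 1536-well plates, were treated the following day by pin tool with a single drug or with five library-drug doses (not always all listed) in √10 steps on top of a fixed anchor-drug dose. Cells were fixed and nuclei stained in one step after 5 days, and nuclei were counted. Relative viability is the nuclei count for treated wells divided by that for vehicle wells, reported as medians of duplicate plates.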

BEN = tested on: BEN
Outline: as §1

HARA = tested on: HARA
Outline: as §1

LCLC-97TM1 = tested on: LCLC-97TM1
Outline: as §1

LOU-NH91 = tested on: LOU-NH91
Outline: as §1

LU99A = tested on: LU99A
Outline: as §1

LXF-289 = tested on: LXF-289
Outline: as §1

NCI-H1395 = tested on: NCI-H1395
Outline: as §1

NCI-H1666 = tested on: NCI-H1666
Outline: as §1

NCI-H1755 = tested on: NCI-H1755
Outline: as §1

NCI-H1793 = tested on: NCI-H1793
Outline: as §1

NCI-H1915 = tested on: NCI-H1915
Outline: as §1

NCI-H1944 = tested on: NCI-H1944
Outline: as §1

NCI-H2023 = tested on: NCI-H2023
Outline: as §1

NCI-H2126 = tested on: NCI-H2126
Outline: as §1

NCI-H2170 = tested on: NCI-H2170
Outline: as §1

NCI-H23 = tested on: NCI-H23
Outline: as §1

NCI-H322M = tested on: NCI-H322M
Outline: as §1

NCI-H441 = tested on: NCI-H441
Outline: as §1

NCI-H460 = tested on: NCI-H460
Outline: as §1

NCI-H650 = tested on: NCI-H650
Outline: as §1

PC-3 [JPC-3] = tested on: PC-3 [JPC-3]
Outline: as §1

SK-LU-1 = tested on: SK-LU-1
Outline: as §1

## Cc1cnc(-c2cnc(NCCNc3ccc(C#N)cn3)nc2-c2ccc(Cl)cc2Cl)[nH]1 + COc1cc2c(Oc3ccc(NC(=O)C4(C(=O)Nc5ccc(F)cc5)CC4)cc3F)ccnc2cc1OCCCN1CCOCC1 [Foretinib] (partner 0.25 µM)
A-427; first compound 0.08 µM
  relative viability: 1.13
A-427; first compound 0.253 µM
  relative viability: 1.01
A-427; first compound 0.8 µM
  relative viability: 0.861
A-427; first compound 2.53 µM
  relative viability: 1.07
BEN; first compound 0.08 µM
  relative viability: 0.857
BEN; first compound 0.253 µM
  relative viability: 0.68
BEN; first compound 0.8 µM
  relative viability: 0.746
BEN; first compound 2.53 µM
  relative viability: 0.69
HARA; first compound 0.08 µM
  relative viability: 1
HARA; first compound 0.253 µM
  relative viability: 0.773
HARA; first compound 0.8 µM
  relative viability: 0.818
HARA; first compound 2.53 µM
  relative viability: 0.877
LCLC-97TM1; first compound 0.08 µM
  relative viability: 0.917
LCLC-97TM1; first compound 0.8 µM
  relative viability: 0.878
LCLC-97TM1; first compound 2.53 µM
  relative viability: 0.86
LOU-NH91; first compound 0.08 µM
  relative viability: 0.975
LOU-NH91; first compound 0.253 µM
  relative viability: 0.901
LOU-NH91; first compound 0.8 µM
  relative viability: 0.96
LOU-NH91; first compound 2.53 µM
  relative viability: 0.942
LU99A; first compound 0.08 µM
  relative viability: 0.908
LU99A; first compound 0.253 µM
  relative viability: 0.701
LU99A; first compound 0.8 µM
  relative viability: 0.83
LU99A; first compound 2.53 µM
  relative viability: 0.765
LXF-289; first compound 0.08 µM
  relative viability: 1.03
LXF-289; first compound 0.253 µM
  relative viability: 0.858
LXF-289; first compound 0.8 µM
  relative viability: 0.994
LXF-289; first compound 2.53 µM
  relative viability: 1.02
NCI-H1395; first compound 0.08 µM
  relative viability: 1.03
NCI-H1395; first compound 0.253 µM
  relative viability: 0.953
NCI-H1395; first compound 0.8 µM
  relative viability: 1.02
NCI-H1395; first compound 2.53 µM
  relative viability: 0.956
NCI-H1666; first compound 0.08 µM
  relative viability: 0.934
NCI-H1666; first compound 0.253 µM
  relative viability: 0.906
NCI-H1666; first compound 0.8 µM
  relative viability: 0.995
NCI-H1666; first compound 2.53 µM
  relative viability: 0.924
NCI-H1755; first compound 0.08 µM
  relative viability: 0.936
NCI-H1755; first compound 0.253 µM
  relative viability: 0.808
NCI-H1755; first compound 0.8 µM
  relative viability: 0.982
NCI-H1755; first compound 2.53 µM
  relative viability: 0.972
NCI-H1793; first compound 0.08 µM
  relative viability: 0.807
NCI-H1793; first compound 0.253 µM
  relative viability: 0.545
NCI-H1793; first compound 0.8 µM
  relative viability: 0.684
NCI-H1793; first compound 2.53 µM
  relative viability: 0.723
NCI-H1915; first compound 0.08 µM
  relative viability: 1.11
NCI-H1915; first compound 0.253 µM
  relative viability: 0.844
NCI-H1915; first compound 0.8 µM
  relative viability: 1.1
NCI-H1915; first compound 2.53 µM
  relative viability: 1.07
NCI-H1944; first compound 0.08 µM
  relative viability: 0.885
NCI-H1944; first compound 0.8 µM
  relative viability: 0.902
NCI-H1944; first compound 2.53 µM
  relative viability: 0.91
NCI-H2023; first compound 0.08 µM
  relative viability: 0.709
NCI-H2023; first compound 0.8 µM
  relative viability: 0.938
NCI-H2023; first compound 2.53 µM
  relative viability: 1.18
NCI-H2126; first compound 0.08 µM
  relative viability: 1.33
NCI-H2126; first compound 0.253 µM
  relative viability: 1.22
NCI-H2126; first compound 0.8 µM
  relative viability: 1
NCI-H2126; first compound 2.53 µM
  relative viability: 1.08
NCI-H2170; first compound 0.08 µM
  relative viability: 0.953
NCI-H2170; first compound 0.253 µM
  relative viability: 0.906
NCI-H2170; first compound 0.8 µM
  relative viability: 0.965
NCI-H2170; first compound 2.53 µM
  relative viability: 0.997
NCI-H23; first compound 0.08 µM
  relative viability: 0.938
NCI-H23; first compound 0.253 µM
  relative viability: 1
NCI-H23; first compound 0.8 µM
  relative viability: 0.983
NCI-H23; first compound 2.53 µM
  relative viability: 1
NCI-H322M; first compound 0.08 µM
  relative viability: 1.07
NCI-H322M; first compound 0.253 µM
  relative viability: 0.856
NCI-H322M; first compound 0.8 µM
  relative viability: 1
NCI-H322M; first compound 2.53 µM
  relative viability: 1.2
NCI-H441; first compound 0.08 µM
  relative viability: 1.2
NCI-H441; first compound 0.253 µM
  relative viability: 0.926
NCI-H441; first compound 0.8 µM
  relative viability: 1.01
NCI-H441; first compound 2.53 µM
  relative viability: 0.958
NCI-H460; first compound 0.08 µM
  relative viability: 1.1
NCI-H460; first compound 0.253 µM
  relative viability: 0.947
NCI-H460; first compound 0.8 µM
  relative viability: 0.981
NCI-H460; first compound 2.53 µM
  relative viability: 0.885
NCI-H650; first compound 0.08 µM
  relative viability: 1.07
NCI-H650; first compound 0.253 µM
  relative viability: 0.994
NCI-H650; first compound 0.8 µM
  relative viability: 1.09
NCI-H650; first compound 2.53 µM
  relative viability: 1.03
PC-3 [JPC-3]; first compound 0.08 µM
  relative viability: 0.978
PC-3 [JPC-3]; first compound 0.253 µM
  relative viability: 0.926
PC-3 [JPC-3]; first compound 0.8 µM
  relative viability: 1.03
PC-3 [JPC-3]; first compound 2.53 µM
  relative viability: 1.03
SK-LU-1; first compound 0.08 µM
  relative viability: 0.865
SK-LU-1; first compound 0.253 µM
  relative viability: 0.833
SK-LU-1; first compound 0.8 µM
  relative viability: 0.983
SK-LU-1; first compound 2.53 µM
  relative viability: 1.03
